# The source made the active and inactive calls. The calls are words filed in the database; no cut-off is given here.
# Tests used:
# [1] = Selectivity index, ratio of IC50 for African green monkey Vero cells to IC50 for chloroquine-resistant Plasmodium falciparum W2; assay type: toxicity; details: read-out: Ratio IC50
# [2] = tested on: Plasmodium falciparum; assay: microbe, parasite or virus in culture; details: D6, 48 h
# [3] = tested on: Toxoplasma gondii; assay: Growth inhibition of GFP-fused Toxoplasma gondii RH infected in HFF at 1 uM after 3 days by fluorescence microscopic method relative to control; assay type: functional; details: for inhibition of growth at 1 µM: 72 h, read-out: GI
# [4] = tested on: Vero; assay: Cytotoxicity against African green monkey Vero cells assessed as reduction in cell viability after 48 hrs; assay type: cell-based; details: Chlorocebus sabaeus
# [5] = tested on: Plasmodium falciparum; assay: microbe, parasite or virus in culture; details: W2, 48 h
# [6] = Selectivity index, ratio of IC50 for African green monkey Vero cells to IC50 for chloroquine-sensitive Plasmodium falciparum D6; assay type: toxicity; details: read-out: Ratio IC50
# [7] = tested on: Toxoplasma gondii; assay: Antiparasitic activity against Toxoplasma gondii RH infected in HFF treated at 4 hrs post infection measured at 5 days post infection by crystal violet staining based method; assay type: functional, organism-based
# [8] = tested on: HFF; assay: Cytotoxicity against HFF cells at 10 uM; assay type: cell-based; details: human
SMILES,selectivity ratio [1],IC50 [2],inhibition of growth at 1 µM [3],IC50 [4],IC50 [5],selectivity ratio [6],growth inhibition (GI) [3],IC50 [7],Activity [8]
COc1ccc(CNCCCCCCCCNCc2ccc(OC)c(O)c2)cc1O,> 2.1,4800 nM,25%,> 4.46 µg/mL,5520 nM,> 2.38,,,
COc1ccc(CNCCCCCCCCCCCCNCc2ccc(OC)c(O)c2)cc1O,> 3.5,1970 nM,25%,> 4.46 µg/mL,2880 nM,> 5.1,,,
CCc1nc(N)nc(N)c1-c1ccc(Cl)cc1,,,,,,,inactive,,
c1ccc(CNCCCNCc2ccccc2)cc1,> 7.1,2350 nM,25%,> 4.46 µg/mL,2630 nM,> 7.9,,,
COc1cc(CNCCCCCCCCCCCCNCc2ccc(OCc3ccccc3)c(OC)c2)ccc1OCc1ccccc1,> 5.3,1280 nM,25%,> 4.46 µg/mL,1370 nM,> 5.67,,,
COc1ccc(CNCCCCCCCCCCNCc2ccc(OC)c(O)c2)cc1O,> 5.7,1970 nM,25%,> 4.46 µg/mL,1880 nM,> 5.41,,,
COc1ccc(CNCCCCCCNCc2ccc(OC)cc2)cc1,2.5,3080 nM,25%,,3360 nM,2.4,,,
COc1ccc(CNCCCCCCCCCCNCc2ccc(OC)cc2)cc1,> 17,600 nM,50%,> 4.46 µg/mL,670 nM,> 19,,,
COc1ccc(CNCCCCCCNCc2ccc(OC)c(O)c2)cc1O,,> 8000 nM,50%,> 4.46 µg/mL,> 8000 nM,,,,
C[C@@H]1CC[C@H]2[C@@H](C)C(=O)O[C@@H]3O[C@@]4(C)CC[C@@H]1[C@]32OO4 [ARTEMISININ],,94 nM,,,94 nM,,,,
COc1cc(CNCCCCCCCCCCNCc2ccc(OCc3ccccc3)c(OC)c2)ccc1OCc1ccccc1,> 7.2,1120 nM,25%,> 4.46 µg/mL,1050 nM,> 6.8,,,
COc1ccc(CNCCCCCCCCNCc2ccc(OC)cc2)cc1,> 7.3,1480 nM,25%,> 4.46 µg/mL,1690 nM,> 8.4,,,
COc1cc(CNCCCNCc2ccc(OCc3ccccc3)c(OC)c2)ccc1OCc1ccccc1,,420 nM,100%,,470 nM,,,1530 nM,Non-Toxic
COc1cc(CNCCCCCCNCc2ccc(OCc3ccccc3)c(OC)c2)ccc1OCc1ccccc1,> 19,260 nM,25%,> 4.46 µg/mL,440 nM,> 31.7,,,
COc1ccc(CNCCCNCc2ccc(OC)cc2)cc1,> 2.8,3180 nM,50%,> 4.46 µg/mL,5410 nM,> 4.8,,,
COc1cc(CNCCCCNCc2ccc(OCc3ccccc3)c(OC)c2)ccc1OCc1ccccc1,> 18.4,330 nM,50%,> 4.46 µg/mL,490 nM,> 27.4,,,
COc1ccc(CNCCCCNCc2ccc(OC)c(O)c2)cc1O,,> 8000 nM,75%,> 4.46 µg/mL,> 8000 nM,,,,
COc1ccc(CNCCCCCCCCCCCCNCc2ccc(OC)cc2)cc1,> 5.8,1580 nM,75%,> 4.46 µg/mL,1860 nM,> 6.8,,,
COc1ccc(CNCCCNCc2ccc(OC)c(O)c2)cc1O,,> 8000 nM,,> 4.46 µg/mL,> 8000 nM,,,,
COc1cc(CNCCCCCCCCNCc2ccc(OCc3ccccc3)c(OC)c2)ccc1OCc1ccccc1,10.5,310 nM,,4520 nM,430 nM,14.6,inactive,,
COc1ccc(CNCCCCNCc2ccc(OC)cc2)cc1,> 2.2,4570 nM,25%,> 4.46 µg/mL,6690 nM,> 3.2,,,

# From ChEMBL document CHEMBL4138238, “A minimalistic approach to develop new anti-apicomplexa polyamines analogs” (Eur J Med Chem, 2018)
